Test system: P. aeruginosa biofilms
Test: Antimicrobial susceptibility of biofilms grown in rotating disk reactor (viable cell counts)
Assay type: cell-based
Conditions: control biofilms grown without conalbumin, FIG. 5
Procedure: P. aeruginosa biofilms for susceptibility tests were grown in a rotating disk reactor. Fe-unsaturated conalbumin (Sigma Chemical Co.) was added to standard biofilm medium at indicated concentrations for the duration of biofilm growth. Discs and attached bacteria were then washed 3 times in distilled water, and treated for 4 h in 1 ml of H2O2 (Fisher Scientific) or tobramycin (Eli Lilly, Indianapolis, Ind.) at indicated concentrations. The treated discs were washed 3 times, and bacteria were removed and dispersed in 2 ml sterile PBS by homogenization (Brinkman Homogenizer, model 10/35). Viable cell numbers were enumerated by plate counting.

| Structure (SMILES) | effect on viability of control biofilms (500 mM H2O2, 4 h of treatment) | effect on viability of control biofilms (1000 μg/ml tobramycin, 4 h of treatment) |
| --- | --- | --- |
| OO [H2O2, reference compound] | minimal effects on viability |  |
| NC[C@H]1O[C@H](O[C@H]2[C@H](O)[C@@H](O[C@H]3O[C@H](CO)[C@@H](O)[C@H](N)[C@H]3O)[C@H](N)C[C@@H]2N)[C@H](N)C[C@@H]1O [tobramycin, reference compound] |  | minimal effects on viability |

From US8343911B2, “Methods of inhibiting and treating bacterial biofilms by metal chelators” (University of Iowa Research Foundation, priority 2002, dated 2013)
